Measurements published in paper PMC6511943, “Structure-Guided Drug Design of 6-Substituted Adenosine Analogues as Potent Inhibitors of Mycobacterium tuberculosis Adenosine Kinase” (Journal of Medicinal Chemistry, 2019).
Values after ≈ are worked out from the molar mass of the structure shown.

What was measured:
MtbAdoK [1] = target: T1, MtbAdoK (Mycobacterium tuberculosis, UniProt P9WID5); settings: read-out: Km for adenosine, previously reported values; cited from earlier work
Mtb H37Rv WT = assay: microbe, parasite or virus in culture; type: cell-based; settings: Mycobacterium tuberculosis
MtbAdoK [2] = target: T1, MtbAdoK; assay: MtbAdoK enzymatic assay (pyruvate kinase–lactate dehydrogenase coupled), IC50 and Ki determination; type: biochemical; settings: Cheng–Prusoff for competitive inhibition; 15.0 μM adenosine; ± SD of 2 experiments
hAdoK = target: T2, hAdoK (Homo sapiens, UniProt P55263); assay: hAdoK enzymatic assay (pyruvate kinase–lactate dehydrogenase coupled), Ki determination; type: biochemical
T2 construct: His-tag with Tobacco Etch Virus (TEV) cleavage site (N); made in house; host or cells: Escherichia coli BL21 (DE3)
T2 sequence (P55263 1-345 isoform P55263-2): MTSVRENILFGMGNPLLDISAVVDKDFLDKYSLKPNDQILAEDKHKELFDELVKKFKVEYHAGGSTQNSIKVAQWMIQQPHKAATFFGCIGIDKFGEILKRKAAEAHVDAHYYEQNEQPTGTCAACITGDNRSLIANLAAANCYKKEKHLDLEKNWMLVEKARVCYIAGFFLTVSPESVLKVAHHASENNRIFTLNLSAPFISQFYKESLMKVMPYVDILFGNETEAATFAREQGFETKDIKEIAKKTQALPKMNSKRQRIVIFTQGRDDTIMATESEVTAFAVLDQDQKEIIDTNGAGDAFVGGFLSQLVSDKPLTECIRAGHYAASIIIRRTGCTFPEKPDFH

Mtb mc^2 7000 = assay: Antimycobacterial assay (MABA); type: cell-based; settings: Mycobacterium tuberculosis, Mtb mc^2 7000, MABA, 6 days + 2 days resazurin
[3] = test system: human dermal fibroblasts (HDF); assay: in vitro; type: cell-based; settings: HDF cells
Protocol: HDFs were purchased from ATCC (Manassas, VA). HDF cells were cultured in DMEM (Lonza) media supplemented with 10.0% fetal bovine serum (Lonza) and penicillin/streptomycin (Lonza). For the cytotoxicity assay, compound stocks were serially diluted in phosphate-buffered saline plus 10.0% DMSO. On the day of assay, HDF cells were trypsinized, counted, and resuspended at a concentration of 64 000 cells/mL in media. Cells were plated, overlaid with the compound serial dilutions, and incubated at 37.0 °C. After 48.0 h, resazurin dye was added, and the assay plates cultured for another 24.0 h. On the next day, the absorbance of the resazurin was measured on a microplate reader to assess cell death. Cytotoxicity was determined as a percent control, and CC50 values for each compound were determined by utilizing eq 1.

in vivo = assay: in vivo; design: species or system Swiss Webster mice; settings: female, ND4 Swiss Webster, mouse, po
Protocol: (§1) Eight-week old female ND4 Swiss Webster mice (∼28 g each) (Envigo, Indianapolis, IN) were used for PK and combination tolerability-snapshot PK studies. Compound 18 was formulated in 5% DMSO, 95% canola oil and administered as a single 100 μL oral gavage at 10 mg·kg^–1 for PK and as a 200 μL oral gavage at 50, 100, or 200 mg·kg^–1 QD × 3 days for tolerability-snapshot PK. Mice were anesthetized using isoflurane and 50 μL collected at 0, 0.25, 0.5, 1, 2, and 4 h survival bleed times for traditional PK or 0, 1, 4, and 24 h for tolerability-snapshot PK studies after the first administered dose. Around 200 μL was collected at 6, 8, and 24 h terminal bleed times for the traditional PK. Survival bleeds were drawn from the facial vein and terminal bleeds via cardiac puncture following CO2 asphyxiation.[35] Three mice were used per time point.
Blood samples were centrifuged (3000g, 15 min) for plasma separation. Aliquots of plasma (10 μL) were extracted with two 500 μL equivalents of methanol containing 0.1% formic acid to ensure maximum recovery of compound 18 from plasma. The supernatant was collected from precipitated protein pellet following centrifugation (3000g, 5 min) and evaporated to dryness using a temperature-controlled Eppendorf Vacufuge at 30 °C for 4 h. The dry samples were reconstituted with 100 μL of methanol (1:10 original analyte dilution factor) spiked with 250 ng·mL^–1 verapamil (Sigma-Aldrich) as an internal standard and subjected to LC/MS analysis on a Bruker Daltronics micrOTOF-Q II mass spectrometer coupled with an Agilent 1200 Infinity series HPLC with temperature controlled autosampler (24 °C) and photodiode array detector. Standard solutions of compound 18 ranging from 1000 to 7.8125 ng·mL^–1 spiked into mouse control plasma was also analyzed to generate a calibration curve corrected for matrix effects. A linear regression generated from calibration samples was used to quantify samples.[34] The LOD of the LC/MS method was approximately 2 ng·mL^–1. A 4.6 × 100 mm Kinetex 2.6 μm EVO C18 100 Å column at a flow rate of 0.5 mL·min^–1 was used in the analysis. The mobile phase consisted of water containing 0.1% formic acid as solvent A and acetonitrile with 0.1% formic acid as solvent B. The gradient conditions were maintained as follows: 90% A, 10% B to 100% B in 8 min; 100% held for 4 min as a washing step; 100% B back to 90% A in 2 min; 90% A, 10% B held for 3 min to reset and equilibrate the column. Each analytical run was automatically calibrated using a secondary line injection of 10 μL of sodium acetate external standard at 13 min. The injection volume of the analyte was 10 μL, and MS was operated in positive mode with electrospray ionization at source. Mass spectra were monitored in a range of 50–1000m/z. Data were processed using DataAnalysis 4.1 and QuantAnalysis (Bruker Daltronics).

[4] = type: in vivo; settings: female Swiss Webster mice, single oral dose 10 mg·kg^–1
Protocol: as §1

MtbAdoK [5] = target: T1, MtbAdoK; assay: Steady-state kinetics of MtbAdoK; settings: versus adenosine

T1 sequence (P9WID5 whole entry, looked up): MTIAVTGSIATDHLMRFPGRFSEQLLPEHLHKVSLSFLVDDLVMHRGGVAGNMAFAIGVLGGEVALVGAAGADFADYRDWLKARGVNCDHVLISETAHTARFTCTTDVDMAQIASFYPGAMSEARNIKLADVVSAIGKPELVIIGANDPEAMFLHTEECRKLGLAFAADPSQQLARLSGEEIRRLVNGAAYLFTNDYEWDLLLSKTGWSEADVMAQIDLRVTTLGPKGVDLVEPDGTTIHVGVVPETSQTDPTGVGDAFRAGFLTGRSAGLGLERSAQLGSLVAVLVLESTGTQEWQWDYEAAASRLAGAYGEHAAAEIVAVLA

Structure (SMILES): Nc1ncnc2c1ncn2[C@@H]1O[C@H](CO)[C@@H](O)[C@H]1O [Compound 1, adenosine]
- Km (MtbAdoK [1]): 0.8 to 3.4 µM

Structure (SMILES): Nc1ncnc2c1c(I)cn2[C@@H]1O[C@H](CO)[C@@H](O)[C@H]1O [Compound 2, Iodotubercidin]
- MIC (Mtb H37Rv WT): 18 ± 10 µM (≈ 7.06 µg/mL)

Structure (SMILES): OC[C@H]1O[C@@H](n2cnc3c(N4CCN(c5ccc(-c6ccccc6)cc5)CC4)ncnc32)[C@H](O)[C@@H]1O [Compound 18, (2R,3R,4S,5R)-2-(6-(4-([1,1′-Biphenyl]-4-yl)piperazin-1-yl)-9H-purin-9-yl)-5-(hydroxymethyl)tetrahydrofuran-3,4-diol]
- Ki (MtbAdoK [2]): 0.0053 ± 7e-05 µM
- activity against hAdoK (in words) (hAdoK): no activity against hAdoK
- Ki (hAdoK; Cheng–Prusoff, ± SD of 2 experiments): > 50 µM
- EC50 (Mtb mc^2 7000; 192 h): ~4 µM
- EC50 (Mtb mc^2 7000): 4 ± 0.2 µM
- cytotoxicity (in words) [3]: no cytotoxicity
- AUC(0-t) (in vivo; 10 mg/kg): 1800 ng·h/mL
- Cmax (in vivo; 10 mg/kg): 130 ± 20 ng/mL
- Tmax (in vivo; 10 mg/kg): ~4 h
- AUC (in vivo; 50 mg/kg): 9800 ng·h/mL
- Tmax (in vivo; 50 mg/kg): ~4 h
- AUC (in vivo; 100 mg/kg): 15300 ng·h/mL
- Tmax (in vivo; 100 mg/kg): ~4 h
- AUC (in vivo; 200 mg/kg): 23200 ng·h/mL
- Tmax (in vivo; 200 mg/kg): ~4 h
- tolerability [4]: well tolerated
- mode of inhibition (MtbAdoK [5]): competitive
